Results published in US10590109B2, “Heterocyclic compounds used as FGFR inhibitors” (Nanjing InnoCare Pharma Tech Co., Ltd., priority 2016, dated 2020).

Columns and labels:
[1] = molecular target: human recombinant FGFR1 catalytic structural domain protein (Homo sapiens (Human), UniProt P11362); assay: FGFR1 activity inhibition test (HTRF kinase assay); format: biochemical; settings: 40 μM ATP
Experimental: FGFR1 Activity Inhibition Test
The influence of the compound according to the present invention on the activity of fibroblast growth factor receptor 1 (FGFR1) was evaluated by an in vitro kinase assay experiment.
(§1) The experimental method is summarized as follows:
The in vitro activity of FGFR1 was determined by assaying the phosphorylation level of the substrate in the kinase reaction, by means of an HTRF kinase assay kit.
If the IC50 value of the compound was very low, the initial concentration of the compound could be reduced.
After 60 min, the enzyme reaction was terminated by EDTA in the assay solution, and the phosphorylated products were identified by both the Eu^3+ labeled cage-shaped antibody (donor) and the streptavidin labeled XL665 antibody (receptor) at the same time. […] The inhibition percentage of the compound against FGFR1 activity could be calculated with the following formula: Inhibition percentage=100−100*(signalcompound−signalnegative control)/(signalpositive control−signalnegative control)
(§2) The IC50 value of the compound was calculated by the following formula, from 10 concentration points, with XLfit (ID Business Solutions Ltd., UK): Y=Bottom+(Top−Bottom)/(1+10^((Log IC50−X)*slope factor))
(§3) Where, Y is the inhibition percentage, Bottom is the bottom plateau of the curve (the bottom plateau of the S-type curve), Top is the top plateau of the curve (the top plateau of the S-type curve), and X is the log value of the compound concentration to be measured.

[2] = molecular target: human recombinant FGFR2 catalytic structural domain protein (Homo sapiens (Human), UniProt P21802); assay: FGFR2 activity inhibition test (HTRF kinase assay); format: biochemical; settings: 50 μM ATP
Sequence of human recombinant FGFR2 catalytic structural domain protein (P21802 400-821): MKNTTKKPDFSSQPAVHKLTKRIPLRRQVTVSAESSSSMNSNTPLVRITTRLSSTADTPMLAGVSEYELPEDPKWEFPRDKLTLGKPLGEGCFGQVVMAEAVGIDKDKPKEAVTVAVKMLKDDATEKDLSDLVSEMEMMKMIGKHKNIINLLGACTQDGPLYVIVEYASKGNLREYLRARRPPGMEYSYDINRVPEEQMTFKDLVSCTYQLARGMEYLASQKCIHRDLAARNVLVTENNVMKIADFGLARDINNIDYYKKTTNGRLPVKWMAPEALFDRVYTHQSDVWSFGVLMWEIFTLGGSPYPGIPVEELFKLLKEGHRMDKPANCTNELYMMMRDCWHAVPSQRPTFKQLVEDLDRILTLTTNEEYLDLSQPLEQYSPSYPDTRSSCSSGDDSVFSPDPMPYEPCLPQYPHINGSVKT
Experimental: FGFR2 Activity Inhibition Test
The influence of the compound according to the present invention on the activity of fibroblast growth factor receptor 2 (FGFR2) was evaluated by an in vitro kinase assay experiment.
as §1
The in vitro activity of FGFR2 was determined by assaying the phosphorylation level of the substrate in the kinase reaction, by means of an HTRF kinase assay kit. The reaction buffer comprised the following components: 5-fold diluted Enzymatic buffer/kinase 5× (Cisbio, Catalog number 62EZBFDD) (main ingredient: 50 mM HEPES, pH 7.0), 5 mM MgCl2, 1 mM DTT; the human recombinant FGFR2 catalytic structural domain protein (amino acids 400-821) was commercially available from Beijing Sino Biological Inc., diluted with the reaction buffer to a 0.045 ng/μL kinase solution; the substrate reaction solution comprised a biotin labeled tyrosine kinase substrate diluted with the reaction buffer to 800 nM (Cisbio, catalog number 62TK0PEC), and 50 μM ATP, and the assay solution comprised an Eu^3+ labeled cage-shaped antibody (Cisbio, Catalog number 61T66KLB) diluted with the assay buffer (Cisbio, Catalog number 62SDBRDF) to 0.125 ng/μL, and 50 nM streptavidin labeled XL665 (Cisbio, Catalog number 610SAXLB).
The compound was dissolved and diluted in 100% DMSO to 100 μM, then 4-fold-series diluted with DMSO to a minimum concentration of 0.0061 μM, and each concentration point was then 40-fold diluted with the reaction buffer. If the IC50 value of the compound was very low, the initial concentration of the compound could be reduced.
4 μL of a compound solution and 2 μL of an FGFR2 kinase solution were added into a 384 well assay plate (Thermo, Catalog number 264706), mixed uniformly and then incubated for 15 min at room temperature; subsequently, 4 μL of the substrate reaction solution was added therein, and the reaction mixture was incubated for 60 min at room temperature; and then 10 μL of an assay solution of an equal volume to the reaction was added therein and mixed uniformly, followed by placement at room temperature. After 60 min, the enzyme reaction was terminated by EDTA in the assay solution, and the phosphorylated products were identified by both the Eu^3+ labeled cage-shaped antibody (donor) and the streptavidin labeled XL665 antibody (receptor) at the same time. After the excitation with laser, the donors and receptors that were close to each other experienced energy resonance transfer, and the energy transferred from the donor (620 nm) to the receptor (665 nm) could be detected with Envision. The ratio of 665/620 is in positive correlation to the phosphorylation degree of the substrate, thereby to detect the FGFR2 kinase activity. […] The inhibition percentage of the compound against FGFR2 activity could be calculated with the following formula: Inhibition percentage=100−100*(signalcompound−signalnegative control)/(signalpositive control−signalnegative control)
as §2, §3

Sequence of human recombinant FGFR1 catalytic structural domain protein (P11362 other isoform, or with tags, fused parts or gaps): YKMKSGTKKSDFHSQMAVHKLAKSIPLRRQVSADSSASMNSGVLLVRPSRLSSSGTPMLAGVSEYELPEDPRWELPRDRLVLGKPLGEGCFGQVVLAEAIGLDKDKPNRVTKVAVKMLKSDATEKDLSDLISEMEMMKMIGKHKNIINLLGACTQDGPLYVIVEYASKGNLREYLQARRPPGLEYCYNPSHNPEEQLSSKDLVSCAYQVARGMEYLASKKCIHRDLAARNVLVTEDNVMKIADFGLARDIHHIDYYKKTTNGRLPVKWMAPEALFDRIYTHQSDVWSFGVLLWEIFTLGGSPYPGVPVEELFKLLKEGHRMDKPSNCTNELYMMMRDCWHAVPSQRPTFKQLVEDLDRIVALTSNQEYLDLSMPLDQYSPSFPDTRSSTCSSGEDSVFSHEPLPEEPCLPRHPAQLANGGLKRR

IC50 [1]: > 1000 nM
IC50 [2]: > 1000 nM
Structure (SMILES): COC[C@@H](C)Oc1cc(NC(=O)N(C)c2ccc(CN3CCOCC3=O)c(C=O)n2)ncc1C#N [Compound 14, (R)-3-(5-cyano-4-((1-methoxyprop-2-yl)oxo)pyrid-2-yl)-1-(6-formyl-5-((3-carbonylmorpholino)methyl)pyrid-2-yl)-1-methylurea]
